The test system of one data set is MRP2. The conditions noted are these: in vitro; bracket not explained in the table; ref 30,43-55 and in-house data from Merck & Co.; cited from earlier work.
For the next data set, the system named is OATP1B1. Further details: method as in earlier work. The conditions noted are these: in vitro; bracket not explained in the table; ref 30,43-55 and in-house data from Merck & Co.; cited from earlier work.
In another data set the target is rMrp2 (Rattus norvegicus, UniProt Q63120). Type of data set: in vivo. Further details: from tissue; host or cells: liver of living male Wistar rats (Charles River Laboratories). The conditions noted are these: for Simple Effect Size (95% CI) kbh: gadoxetate biliary efflux, control − treatment, positive = decrease, site G2. An excerpt: (§1) The tracer-kinetic model was developed to enable estimation of rate constants of hepatobiliary efflux from DCE-MRI profiles in individual animals. In this approach, the liver was assumed to consist of two compartments, the extracellular space (e) and the hepatocytes (h). Since water exchanges rapidly between those spaces, the change in relaxation rate was a weighted average (Equation (4)). (4) ΔR1(t)=r1,e·ve·ce(t)+r1,h·vh·ch(t)
Chain of rMrp2 (Q63120 whole entry): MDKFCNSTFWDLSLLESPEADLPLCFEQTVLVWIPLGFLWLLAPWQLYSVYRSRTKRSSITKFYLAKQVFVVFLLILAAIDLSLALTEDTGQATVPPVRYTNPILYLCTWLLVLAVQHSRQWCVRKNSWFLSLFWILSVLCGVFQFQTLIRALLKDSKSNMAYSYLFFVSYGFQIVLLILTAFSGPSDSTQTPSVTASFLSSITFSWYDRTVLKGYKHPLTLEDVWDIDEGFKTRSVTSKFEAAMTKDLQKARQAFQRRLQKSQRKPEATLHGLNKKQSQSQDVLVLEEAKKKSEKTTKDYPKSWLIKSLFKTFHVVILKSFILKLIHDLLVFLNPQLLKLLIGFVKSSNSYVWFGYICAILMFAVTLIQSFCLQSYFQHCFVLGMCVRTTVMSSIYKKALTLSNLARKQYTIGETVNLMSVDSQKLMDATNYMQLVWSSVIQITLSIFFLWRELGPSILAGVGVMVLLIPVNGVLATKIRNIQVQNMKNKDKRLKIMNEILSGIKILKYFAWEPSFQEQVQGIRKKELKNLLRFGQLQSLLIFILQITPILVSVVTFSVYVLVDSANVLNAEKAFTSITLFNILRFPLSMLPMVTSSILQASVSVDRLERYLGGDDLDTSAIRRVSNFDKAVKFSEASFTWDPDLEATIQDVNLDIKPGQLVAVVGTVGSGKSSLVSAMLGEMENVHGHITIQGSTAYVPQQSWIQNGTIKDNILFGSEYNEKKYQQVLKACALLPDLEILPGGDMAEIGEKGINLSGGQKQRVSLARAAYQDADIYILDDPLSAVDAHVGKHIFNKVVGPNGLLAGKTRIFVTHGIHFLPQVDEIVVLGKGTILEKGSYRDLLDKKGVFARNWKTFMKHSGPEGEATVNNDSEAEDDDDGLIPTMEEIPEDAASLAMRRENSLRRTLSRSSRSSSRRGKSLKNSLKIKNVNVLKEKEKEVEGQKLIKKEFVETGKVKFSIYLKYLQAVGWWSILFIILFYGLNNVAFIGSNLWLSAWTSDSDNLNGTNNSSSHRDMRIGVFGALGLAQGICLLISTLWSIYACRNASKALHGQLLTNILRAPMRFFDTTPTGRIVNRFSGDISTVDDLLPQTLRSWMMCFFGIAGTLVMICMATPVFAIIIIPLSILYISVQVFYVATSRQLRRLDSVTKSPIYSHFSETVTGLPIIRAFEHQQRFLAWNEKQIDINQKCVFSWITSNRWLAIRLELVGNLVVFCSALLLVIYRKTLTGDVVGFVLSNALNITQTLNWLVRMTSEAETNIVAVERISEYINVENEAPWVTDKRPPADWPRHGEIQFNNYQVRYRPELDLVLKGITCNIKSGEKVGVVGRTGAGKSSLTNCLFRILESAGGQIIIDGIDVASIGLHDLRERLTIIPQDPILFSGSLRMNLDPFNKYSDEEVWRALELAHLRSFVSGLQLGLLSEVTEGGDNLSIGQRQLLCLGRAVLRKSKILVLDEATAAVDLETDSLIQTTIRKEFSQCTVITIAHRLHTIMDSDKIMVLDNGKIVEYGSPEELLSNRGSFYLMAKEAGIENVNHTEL
(§2) The proportionality constant, r1,τ [L⋅mmol^−1⋅s^−1] , is the relaxivity of the contrast agent for the compartment τ (extracellular space, e or hepatocytes, h) at the respective field strength, while vτ [mL/mL tissue] is the volume fraction of the compartment τ . Previously measured ex vivo r1,tau values for gadoxetate were used in this work, as per. The underlying assumptions of the PBPK and tracer-kinetic models, relating to physiological volumes and perfusion, are consistent, despite different parameterizations according to the purpose of each model. For example, Vliv,extr in the PBPK model is defined as an absolute volume (units = L; sum of liver plasma and interstitial volumes), while in the tracer-kinetic model, ve is a volume fraction (dimensionless), defined as Vliv,extr/Vliver , where Vliver is the total liver volume. While some analogy can be drawn between CLactive […], and CLbiliary and kbh, the interpretations are distinct. For example, the operating concentrations of the PBPK parameters CLactive […], and CLbiliary are the unbound concentrations of gadoxetate in plasma and hepatocytes, while the tracer-kinetic model is parameterized with respect to the total concentration of gadoxetate.
(§3) Since ce(t) is the input to the hepatocytes, and no backflux from hepatocytes to extracellular space is assumed, Equation (5) can be derived. (5) vh·ch(t)=e^−t/Th∗khe·ce(t) where Th is the mean transit time of gadoxetate in the hepatocytes [min] , and * is convolution. The extracellular space is assumed to be in equilibrium with the blood pool and therefore the concentration ce(t) is proportional to the concentration cp(t) in the plasma of the feeding artery, i.e., ce(t) = (1 − E)·cp(t), where E is the extraction fraction of gadoxetate in the liver. Combining this assumption with Equations (4) and (5), and using (1 − E)·khe = E·Fp, with Fp being the apparent plasma flow into the liver [mL/min/mL tissue volume] , gives Equation (6), the operational equation for gadoxetate DCE-MRI in the liver. (6) ΔR1(t)=(1−E)·ve·r1,p·cp(t)+E·Fp·r1,h ·e^−t/Th ∗cp(t)
(§4) The rate constants were derived as K^trans = E·Fp, khe = E·Fp/(1 − E), and kbh = vh/Th, with a literature value for vh. The plasma concentrations cp(t) were not reliably measured in small animals due to the small diameter of the main vessels compared to the resolution of the measurement. […] Therefore, the source term cp(t) was derived from a two-compartment pharmacokinetic model for gadoxetate (see Supplementary Material, Section S5), and a step function as input in the blood compartment. The parameters kbh and khe were fitted to the liver data using a model implementation in Python. For each rat considered in these studies, the rate constants K^trans, khe, and kbh were calculated, in both control and inhibitory phases. The rate constants of the control and inhibitory phases were compared via calculation of simple (unstandardized) effect sizes (i.e., simple effect size = μcontrol − μtreatment, where μ is the mean average of all subjects) at the 95% confidence level. Statistical significance was assessed through a two-sided paired t-test, with p < 0.05 considered significant.

The conditions of data set [1]: fraction unbound in plasma; cited from earlier work.
A further data set deals with T1, rOatp1b (Rattus norvegicus, UniProt Q9QZX8).
T1 construct: from tissue; host or cells: liver of living male Wistar rats (Charles River Laboratories)
T1 sequence (Q9QZX8 1-687): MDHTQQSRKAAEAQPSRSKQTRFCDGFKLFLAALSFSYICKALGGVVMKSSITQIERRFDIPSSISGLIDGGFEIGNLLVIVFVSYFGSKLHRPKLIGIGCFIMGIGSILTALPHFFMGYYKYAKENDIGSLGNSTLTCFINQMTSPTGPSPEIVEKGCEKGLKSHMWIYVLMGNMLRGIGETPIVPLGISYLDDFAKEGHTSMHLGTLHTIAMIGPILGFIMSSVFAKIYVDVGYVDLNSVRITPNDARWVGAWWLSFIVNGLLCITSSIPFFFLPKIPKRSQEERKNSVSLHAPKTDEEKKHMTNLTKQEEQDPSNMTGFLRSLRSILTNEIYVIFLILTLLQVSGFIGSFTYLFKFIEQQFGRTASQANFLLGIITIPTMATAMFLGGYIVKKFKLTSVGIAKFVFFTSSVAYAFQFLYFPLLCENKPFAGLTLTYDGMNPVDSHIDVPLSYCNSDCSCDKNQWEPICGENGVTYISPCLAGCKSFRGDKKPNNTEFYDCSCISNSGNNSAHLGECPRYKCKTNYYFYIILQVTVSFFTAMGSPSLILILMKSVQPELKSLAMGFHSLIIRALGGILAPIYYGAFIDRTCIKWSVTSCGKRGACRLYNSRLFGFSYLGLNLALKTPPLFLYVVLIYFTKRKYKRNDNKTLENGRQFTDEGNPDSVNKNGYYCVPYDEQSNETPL
Type of data set: in vivo. The conditions noted are these: for Simple Effect Size (95% CI) K^trans: gadoxetate hepatic plasma clearance; for Simple Effect Size (95% CI) K^trans / Simple Effect Size (95% CI) khe: control − treatment, positive = decrease; for Simple Effect Size (95% CI) khe: gadoxetate hepatic uptake.
Text: as §1, §2, §3
as §4, with “The rate constants of the control and inhibitory phases were compared via calculation of simple (unstandardized) effect sizes (i.e., simple effect size = μcontrol − μtreatment, where μ is the mean average of all subjects) at the 95% confidence level.” left out

For a further data set, the system named is rNtcp. Further details: method as in PMID 16258024, PMID 29891589, PMID 21415249, PMID 11883641, PMID 15550721. The conditions noted are these: in vitro; cited from earlier work.
[2] abbreviates: pioglitazone 0.4 mg/kg iv, site E.

Here are results for five compounds from publication PMC10057977, “Use of In Vivo Imaging and Physiologically-Based Kinetic Modelling to Predict Hepatic Transporter Mediated Drug–Drug Interactions in Rats” (Pharmaceutics, 2023).

Read-outs that look alike come from different tables or passages of the source. Where only a bound is given, the exact number is not on record here.

As to `COc1ccccc1Oc1c(NS(=O)(=O)c2ccc(C(C)(C)C)cc2)nc(-c2ncccn2)nc1OCCO` [Bosentan], the IC50 in the data set on MRP2 was greater than 100 µM; with OATP1B1 it was 6.6 µM; with rNtcp it was 0.4 µM. Moreover, at rMrp2 (bosentan 4–6 mg/kg iv), the “Simple Effect Size (95% CI) kbh” value is on record as 0.02 (−0.02, 0.07) mL/min/mL liver. Further, in data set [1], the fu is less than 0.02. Moreover, the “Simple Effect Size (95% CI) K^trans” value on rOatp1b (bosentan 2 mg/kg iv, site G1, subjects 3, 4, 6 excluded) is reported as 0.28 (−0.32, 0.88) mL/min/mL liver; on rOatp1b (bosentan 4–6 mg/kg iv, site G2), 0.07 (−0.12, 0.26) mL/min/mL liver. The “Simple Effect Size (95% CI) khe” value on rOatp1b (bosentan 2 mg/kg iv, site G1, subjects 3, 4, 6 excluded, khe physiologically implausible) was −54.22 (−197.97, 89.53) mL/min/mL liver; on rOatp1b (bosentan 4–6 mg/kg iv, site G2), 1.07 (−1.13, 3.26) mL/min/mL liver.

Regarding `C=C[C@@H]1C[C@]1(NC(=O)[C@@H]1C[C@@H](Oc2ncc(OC)c3ccc(Cl)cc23)CN1C(=O)[C@@H](NC(=O)OC(C)(C)C)C(C)(C)C)C(=O)NS(=O)(=O)C1CC1` [Asunaprevir], the results for the IC50 in the data set on MRP2, in the data set with OATP1B1 and with rNtcp were 4 µM, 0.55 µM and 0.6 µM, respectively. Besides, at rMrp2 (rat, asunaprevir 5 mg/kg iv), the “decrease in gadoxetate kbh” value is 31%. For the same compound, at rOatp1b (asunaprevir 5 mg/kg iv, site E), the “Simple Effect Size (95% CI) K^trans” value was 0.24 (−0.01, 0.48) mL/min/mL liver. For the same compound, the “Simple Effect Size (95% CI) khe” value at rOatp1b (asunaprevir 5 mg/kg iv, site E) is given as 2.34 (−0.92, 5.60) mL/min/mL liver.

Take `CCc1ccc(CCOc2ccc(CC3SC(=O)NC3=O)cc2)nc1` (centres unmarked) [Pioglitazone]: the IC50 with MRP2 is greater than 133 µM. The “decrease in gadoxetate kbh” value on rMrp2 (rat, pioglitazone 0.4 mg/kg iv) amounted to 19%. The fu in data set [1] was less than 0.01. At rOatp1b (setting [2]), the “Simple Effect Size (95% CI) K^trans” value was 0.13 (−0.05, 0.32) mL/min/mL liver and the “Simple Effect Size (95% CI) khe” value was 1.21 (−0.10, 2.51) mL/min/mL liver.

For `CO[C@H]1/C=C/O[C@@]2(C)Oc3c(C)c(O)c4c(O)c(c(/C=N/N5CCN(C)CC5)c(O)c4c3C2=O)NC(=O)/C(C)=C\C=C\[C@H](C)[C@H](O)[C@@H](C)[C@@H](O)[C@@H](C)[C@H](OC(C)=O)[C@@H]1C` [Rifampicin], in the data set on MRP2, the IC50 is 55 µM and the inhibition constant Ki is 24.3 µM. Also, in the data set on OATP1B1, the IC50 was 1.9 µM and the inhibition constant Ki was 0.67 µM. Moreover, the “Simple Effect Size (95% CI) kbh” value at rMrp2 (** p < 0.01, rifampicin 2 mg/kg iv) is recorded as 0.07 mL/min/mL liver. Besides, the fu in data set [1] was 0.2. The “Simple Effect Size (95% CI) khe” value at rOatp1b (* p < 0.05, rifampicin 2 mg/kg iv, site G2) was 7.20 mL/min/mL liver.

In the case of `CCOc1ccc(C[C@@H](CN(CCN(CC(=O)[O-])CC(=O)[O-])CC(=O)[O-])N(CC(=O)[O-])CC(=O)[O-])cc1.[Gd+3].[H+].[H+]` [gadoxetate, Gadoxetate], at rMrp2 (rat, in vivo), the “kbh, new value in unified units” value came to 1.19 mL/min and the “kbh, original value” was 0.14 mL/ min/ mL tissue volume. Besides, at rOatp1b (rat, in vivo), the “hepatic extraction ratio (E)” value is reported as greater than 0.95; the “khe, new value in unified units” value was determined as 11.1 mL/min; the “khe, original value” was 1.31 mL/ min/ mL tissue volume.

In general, IC50 refers to the point on the concentration scale where inhibition reaches its midpoint. In general, Ki refers to the dissociation constant of the complex between target and ligand, obtained from inhibition or displacement.
